Laboratory results: paper PMC7046148 (Scientific Reports, 2020)

Assays:
XCL-1 hiPSC CRBN Mock = assay: LPM differentiation assay (FOXF1 high content imaging), XCL-1 CRBN Mock clone; assay type: cell-based; conditions: Homo sapiens, 48 h, % FOXF1+ cells after 2 d in APEL2+GSKi, read-out: IC50 (±SEM) in LPM differentiation assay
Description: On the day after seeding, the medium was replaced with 100 µL/well of mTeSR-1 (control) or APEL2 + GSKi containing either DMSO or diluted compounds (for a final DMSO concentration of 0.2%). The same conditions were replenished the following day for a total of 2 d of differentiation, and the following day (3 d after seeding), the medium was aspirated, and hiPSCs were fixed in 10% NBF for 15 min at room temperature.
(§1) Immunofluorescence staining was carried out by fixing/permeabilizing cells overnight in blocking buffer containing 3% BSA (Sigma) in DPBS-T, which contains DPBS + Ca^2+//Mg^2+ with 0.3% Triton-X100 (Sigma). Fixed and permeabilized cells were incubated in primary antibodies diluted (as noted in Table 1) in antibody buffer, consisting of 1% BSA in DPBS-T, overnight at 4 °C.
(§2) Cells were washed in blocking buffer for >6 hours at 4 °C and subsequently incubated in secondary antibody diluted in antibody buffer overnight at 4 °C. Secondary antibodies were washed out in antibody buffer for >4 h at 4 °C, and hiPSCs were counterstained with DAPI (Fisher) at 10 µg/mL in DPBS-T for 2 h. hiPSCs were washed in DPBS-T for >2 h at 4 °C, and immediately before imaging, the DPBS-T was replaced with DPBS. […] Chemical dose-response experiments and experiments examining the time-course of marker expression during LPM differentiation were imaged at 10X magnification using the Cellomics ArrayScan or CellInsight Cx7 LZR High Content Screening Platform and HCS Studio Cell Analysis Software (Thermo Fisher). An artificial threshold was uniformly applied to all images to generate the percentage of DAPI+ nuclei that stained positively for FOXF1 or NANOG. Thresholding for FOXF1 and T was performed relative to undiffer-entiated hiPSCs, and thresholding for SALL4 and OCT4 was performed relative to a non-expressing cell type (human primary endothelial cells). Settings for image acquisition and processing were uniformly applied between XCL-1 clones. […] Experiments were repeated in quadruplicate unless otherwise stated, and data are presented as mean ± SEM. Nonlinear regression analysis was performed using the 4-parameter [inhibitor]-vs-response curve fitting algorithm in Prism (GraphPad).

Gibco hiPSCs [1] = assay: LPM differentiation assay (FOXF1 high content imaging), Gibco hiPSCs; conditions: for IC50: Homo sapiens, 48 h, read-out: IC50 (±SEM) in LPM differentiation assay
Description: (§3) hiPSCs (Gibco or XCL-1 clones) were grown in mTeSR-1 on Matrigel, passaged into small clumps with Versene (4.5 min under normal culture conditions), counted as a single-cell suspension as described above, and seeded as small clumps at approximately 10,000 cells/well (30,000 cells/cm^2, ~15% confluence) in 100 µL mTeSR1 on Matrigel-coated µClear® 96-well plates (Greiner) for 1 d under normal culture conditions. On the day after seeding, the medium was replaced with 100 µL/well of mTeSR-1 (control) or APEL2 + GSKi containing either DMSO or diluted compounds (for a final DMSO concentration of 0.2%). The same conditions were replenished the following day for a total of 2 d of differentiation, and the following day (3 d after seeding), the medium was aspirated, and hiPSCs were fixed in 10% NBF for 15 min at room temperature.
as §1, §2

Gibco hiPSCs [2] = assay: 3D chondrogenic differentiation after LPM differentiation, DMMB assay for sGAG; assay type: cell-based, human; conditions: during 2 d LPM differentiation, then 18 d chondrogenic differentiation; for sGAG/DNA content compared to the DMSO control: thalidomide 20 µM, atRA 3 µM; for reduction of sGAG/DNA content upon chondrogenic differentiation in 3D: thalidomide at 20 µM, atRA at 3 µM
Description: For 3D differentiation studies, Gibco hiPSCs were encapsulated in fibrin at 2–4 × 10^6 cells/mL. hiPSCs were passaged with Versene (as described above) and were suspended as small clumps in a solution composed of a 1:4:5:10 dilution of 200 mM CaCl2 in DI water, 50 U/mL human thrombin (Sigma) in 0.1% cell culture BSA in DI water, DPBS, and hiPSC suspension in mTeSR1. The hiPSC suspension was mixed by pipetting, and 0.5 µL droplets of suspended hiPSCs were plated at the bottom of each well of a round-bottom sterile polypropylene plate. hiPSC suspensions were subsequently diluted 5-fold by pipetting up and down in each well with 2 µL of 10 mg/mL human fibrinogen (Sigma) in DPBS (sterile filtered prior to use). Fibrin clot formation proceeded for 10 minutes at room temperature prior to addition of mTeSR-1 and incubation under normal culture conditions overnight. […] For chondrogenic differentiation experiments, cells were cultured in APEL2 + GSKi for the described duration, followed by culture in ACF MesenCult chondrogenic differentiation medium (Stem Cell Technologies) for 17–20 days under normal culture conditions. Encapsulated hiPSCs were characterized by qRT-PCR as described above, except cells were lysed by bead-based homogenization (Bead Mill 4, Thermo Fisher) in buffer RLT that was supplemented with 1% β-mercaptoethanol. RNeasy procedure was carried out per manufacturer’s instructions, including the optional DNase step. Purified RNA samples were stored at −20 °C before analysis using Taqman primer/probes (Thermo Fisher) and fast advanced master mix (Thermo Fisher) on a QuantStudio 5 (Thermo). Samples were compared using normalization to the ACTB in each sample and the control for each experiment using the 2^−ΔΔCT method.
Alternatively, encapsulated hiPSCs were characterized for sulfated glycosaminoglycan (sGAG) content using the dimethylmethylene blue (DMMB) assay protocol[33],[34]. […] After addition of DMMB assay buffer, samples were immediately read at 525 nm, and sGAG composition was calculated in each sample by comparison to a chondroitin sulfate standard that was dissolved in digestion buffer. sGAG content (in µg/mL) was normalized to dsDNA content (in µg/mL) in each sample.
Figure 7 Characterization of hiPSC chondrogenic differentiation in 3D by DMMB assay for sulfated glycosaminoglycans. Chondrogenic differentiation of hiPSCs was assessed by culturing hiPSCs in fibrin gels followed by culture in APEL2/GSKi and subsequent culture in chondrogenic differentiation medium for a total of 21 days in culture after encapsulation. The influence of the duration of LPM differentiation or of chemical treatment during LPM differentiation (for 2 days) on chondrogenic differentiation was assessed by sulfated glycosaminoglycan assay on day 21. […]

hiPSCs = assay: Viability of hiPSCs in 3D culture (CellTiter Glo 3D); assay type: cell-based, human; conditions: 20 µM thalidomide or 3 µM atRA, 2 d LPM differentiation in 3D fibrin
Description: Supplementary Figure 10. Normalized viability of hiPSCs differentiated to LPM for 2 days in 3D […]
µM atRA. Data represent replicate wells in a single experiment, n=6, of hiPSCs that were cultured in fibrin for 1 day in mTeSR1 followed by 2 days of culture in APEL2+GSKi in the presence of either 0.1% […]
differentiation, the medium was replaced with CellTiter Glo 3D reagent (diluted 1:1 in DPBS), and luminescence was measured on a plate reader.
Normalized luminescence is reported as mean +/- SD of 6 replicate wells per condition. No statistical differences was observed via one-way ANOVA and Dunnett’s post-hoc test (α=0.05).
(1 picture or pasted object on this page, not shown here)

SALL4^G416A = molecular target: T1, SALL4^G416A (Homo sapiens, UniProt Q9UJQ4, G416A); assay: SALL4 MFI by high content imaging, XCL-1 SALL4^G416A hiPSCs; assay type: cell-based; conditions: SALL4^G416A hiPSC clone, 8 h of treatment
T1 construct: parental hiPSCs were engineered to express a homozygous G416A mutation in the endogenous SALL4 locus; endogenous in cells; host or cells: XCL-1 SALL4^G416A hiPSC clone (1E6), CRISPR/Cas9 knock-in at the endogenous locus
From the text: High content imaging analysis of SALL4 immunofluorescence with DAPI counterstaining in hiPSCs. […] Data represent the mean +/− SEM from 2 independent experiments.

XCL-1 hiPSC CRBN KO/KI = assay: LPM differentiation assay (FOXF1 high content imaging), XCL-1 CRBN KO/KI clone; assay type: cell-based, human; conditions: for IC50: Homo sapiens, 48 h, XCL-1 CRBN KO/KI, % FOXF1+ cells after 2 d in APEL2+GSKi, read-out: IC50 (±SEM) in LPM differentiation assay
Description: On the day after seeding, the medium was replaced with 100 µL/well of mTeSR-1 (control) or APEL2 + GSKi containing either DMSO or diluted compounds (for a final DMSO concentration of 0.2%). The same conditions were replenished the following day for a total of 2 d of differentiation, and the following day (3 d after seeding), the medium was aspirated, and hiPSCs were fixed in 10% NBF for 15 min at room temperature. For time-course experiments, cells were fixed at the specified intervals after the start of LPM differentiation.
as §1
Cells were washed in blocking buffer for >6 hours at 4 °C and subsequently incubated in secondary antibody diluted in antibody buffer overnight at 4 °C. Secondary antibodies were washed out in antibody buffer for >4 h at 4 °C, and hiPSCs were counterstained with DAPI (Fisher) at 10 µg/mL in DPBS-T for 2 h. hiPSCs were washed in DPBS-T for >2 h at 4 °C, and immediately before imaging, the DPBS-T was replaced with DPBS. Initial characterization of LPM differentiation by immunofluorescence was carried out using the A1R confocal microscope (Nikon) equipped with 10X objective, and automated object analysis was carried out using NIS Elements v5 software (Nikon). Chemical dose-response experiments and experiments examining the time-course of marker expression during LPM differentiation were imaged at 10X magnification using the Cellomics ArrayScan or CellInsight Cx7 LZR High Content Screening Platform and HCS Studio Cell Analysis Software (Thermo Fisher). An artificial threshold was uniformly applied to all images to generate the percentage of DAPI+ nuclei that stained positively for FOXF1 or NANOG. Thresholding for FOXF1 and T was performed relative to undiffer-entiated hiPSCs, and thresholding for SALL4 and OCT4 was performed relative to a non-expressing cell type (human primary endothelial cells). Settings for image acquisition and processing were uniformly applied between XCL-1 clones. The capacity of all XCL-1 clones and Gibco hiPSCs to undergo LPM differentiation in the high content format was assessed by FOXF1 and NANOG immunostaining. […] Experiments were repeated in quadruplicate unless otherwise stated, and data are presented as mean ± SEM. Nonlinear regression analysis was performed using the 4-parameter [inhibitor]-vs-response curve fitting algorithm in Prism (GraphPad).
Using CRISPR/Cas9-mediated gene editing, both CRBN alleles were knocked out in XCL-1 hiPSCs cells, followed by the insertion at the AAVS1 locus of a transgene encoding human CRBN with E377V and V388I mutations (clone hereafter referred to as CRBN KO/KI).

XCL-1 hiPSC SALL4 Mock = assay: LPM differentiation assay (FOXF1 high content imaging), XCL-1 SALL4 Mock clone; conditions: Homo sapiens, 48 h, read-out: IC50 (±SEM) in LPM differentiation assay
Description: as §3, §1, §2

T1 sequence (Q96SW2 whole entry partner): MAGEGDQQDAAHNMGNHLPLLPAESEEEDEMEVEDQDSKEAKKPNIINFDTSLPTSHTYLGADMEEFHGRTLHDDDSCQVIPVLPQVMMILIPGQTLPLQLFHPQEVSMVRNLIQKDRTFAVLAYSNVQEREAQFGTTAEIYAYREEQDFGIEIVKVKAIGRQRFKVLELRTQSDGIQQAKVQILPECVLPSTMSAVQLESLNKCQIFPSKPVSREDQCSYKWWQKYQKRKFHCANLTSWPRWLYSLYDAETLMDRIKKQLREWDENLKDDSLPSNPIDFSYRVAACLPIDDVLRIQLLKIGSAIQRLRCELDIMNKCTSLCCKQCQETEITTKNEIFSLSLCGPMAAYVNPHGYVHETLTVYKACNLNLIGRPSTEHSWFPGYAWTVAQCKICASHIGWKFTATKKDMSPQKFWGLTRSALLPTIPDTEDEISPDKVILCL
T1 sequence (Q16531 whole entry partner): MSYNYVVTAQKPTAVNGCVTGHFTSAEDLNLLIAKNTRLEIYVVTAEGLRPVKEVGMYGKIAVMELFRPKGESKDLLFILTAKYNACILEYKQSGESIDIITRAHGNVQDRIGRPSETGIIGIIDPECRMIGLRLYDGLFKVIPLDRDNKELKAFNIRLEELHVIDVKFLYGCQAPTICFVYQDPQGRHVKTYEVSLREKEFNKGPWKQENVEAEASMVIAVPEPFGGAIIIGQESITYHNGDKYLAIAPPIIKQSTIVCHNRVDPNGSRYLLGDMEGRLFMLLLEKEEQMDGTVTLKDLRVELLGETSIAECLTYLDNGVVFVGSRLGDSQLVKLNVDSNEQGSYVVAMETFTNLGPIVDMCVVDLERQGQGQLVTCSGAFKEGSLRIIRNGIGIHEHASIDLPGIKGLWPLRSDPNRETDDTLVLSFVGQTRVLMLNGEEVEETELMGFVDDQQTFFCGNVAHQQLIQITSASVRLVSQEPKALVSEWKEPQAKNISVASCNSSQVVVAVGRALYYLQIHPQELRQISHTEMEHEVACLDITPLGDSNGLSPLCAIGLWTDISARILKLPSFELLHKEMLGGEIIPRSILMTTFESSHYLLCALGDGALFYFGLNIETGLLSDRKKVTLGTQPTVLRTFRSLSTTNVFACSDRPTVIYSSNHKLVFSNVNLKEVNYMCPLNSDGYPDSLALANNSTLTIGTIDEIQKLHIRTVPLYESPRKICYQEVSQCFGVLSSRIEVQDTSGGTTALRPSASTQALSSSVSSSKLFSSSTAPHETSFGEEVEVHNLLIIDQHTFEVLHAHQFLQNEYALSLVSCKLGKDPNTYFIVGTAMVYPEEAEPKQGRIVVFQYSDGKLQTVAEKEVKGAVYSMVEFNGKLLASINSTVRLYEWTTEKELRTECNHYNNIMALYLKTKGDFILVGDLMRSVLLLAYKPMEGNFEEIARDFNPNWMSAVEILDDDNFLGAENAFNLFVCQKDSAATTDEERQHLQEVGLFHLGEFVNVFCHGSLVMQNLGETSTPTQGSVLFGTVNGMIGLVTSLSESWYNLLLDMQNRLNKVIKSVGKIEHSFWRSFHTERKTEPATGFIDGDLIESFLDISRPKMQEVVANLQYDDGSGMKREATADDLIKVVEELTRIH
T1 sequence (Q9UJQ4 whole entry G416A): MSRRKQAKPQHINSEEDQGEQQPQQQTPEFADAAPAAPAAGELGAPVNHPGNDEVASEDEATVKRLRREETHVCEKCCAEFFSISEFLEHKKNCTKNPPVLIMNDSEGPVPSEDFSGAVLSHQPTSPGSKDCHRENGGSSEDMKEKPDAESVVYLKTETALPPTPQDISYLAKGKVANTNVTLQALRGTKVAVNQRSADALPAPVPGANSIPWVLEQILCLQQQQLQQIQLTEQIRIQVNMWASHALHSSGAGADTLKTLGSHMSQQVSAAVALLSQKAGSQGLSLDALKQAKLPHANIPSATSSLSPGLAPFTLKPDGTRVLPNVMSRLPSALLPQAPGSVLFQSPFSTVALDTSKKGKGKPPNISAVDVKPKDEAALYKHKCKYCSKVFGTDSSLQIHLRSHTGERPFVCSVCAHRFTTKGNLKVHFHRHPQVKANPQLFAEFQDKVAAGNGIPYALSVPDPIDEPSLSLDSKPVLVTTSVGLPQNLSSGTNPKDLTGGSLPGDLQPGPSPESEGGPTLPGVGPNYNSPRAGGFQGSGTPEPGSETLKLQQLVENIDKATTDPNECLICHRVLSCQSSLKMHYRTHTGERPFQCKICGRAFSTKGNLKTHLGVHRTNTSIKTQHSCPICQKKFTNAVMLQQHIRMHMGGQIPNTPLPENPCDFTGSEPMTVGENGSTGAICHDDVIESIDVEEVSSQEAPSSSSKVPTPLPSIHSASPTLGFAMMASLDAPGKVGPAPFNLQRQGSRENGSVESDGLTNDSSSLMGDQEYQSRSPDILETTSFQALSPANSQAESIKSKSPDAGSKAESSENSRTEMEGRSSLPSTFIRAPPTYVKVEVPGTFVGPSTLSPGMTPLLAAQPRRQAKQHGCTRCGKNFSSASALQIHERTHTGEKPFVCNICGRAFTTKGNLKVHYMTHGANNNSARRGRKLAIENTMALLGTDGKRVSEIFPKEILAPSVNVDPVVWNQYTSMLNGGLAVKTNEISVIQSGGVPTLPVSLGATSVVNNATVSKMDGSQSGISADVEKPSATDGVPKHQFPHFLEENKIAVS

IC50 (Gibco hiPSCs [1]) [nM] | effect on SALL4 MFI (SALL4^G416A) | IC50 (XCL-1 hiPSC CRBN KO/KI) [nM] | SMILES | IC50 (XCL-1 hiPSC CRBN Mock) [nM] | reduction of %FOXF1+ cells via high content imaging (Gibco hiPSCs [1]; thalidomide at 20 µM, atRA at 3 µM, during LPM differentiation) [%] | sGAG/DNA content compared to the DMSO control (Gibco hiPSCs [2]) | reduction of sGAG/DNA content upon chondrogenic differentiation in 3D (Gibco hiPSCs [2]) | normalized viability (CellTiter Glo 3D) versus DMSO (hiPSCs) | inhibition of LPM differentiation at the highest concentration tested (XCL-1 hiPSC CRBN KO/KI; 50 µM, CRBN KO/KI clone) | IC50 (XCL-1 hiPSC SALL4 Mock) [nM]
310 ± 190 | unchanged | > 50000 | O=C1CCC(N2C(=O)c3ccccc3C2=O)C(=O)N1 (stereo not drawn) [Thalidomide, thalidomide] | 560 ± 450 | 30 | decreased sGAG/DNA content | 30% | No statistical differences | inhibited LPM differentiation albeit not to the same magnitude as control hiPSCs | 690 ± 500
820 ± 780 | unchanged | 8170 ± 5100 | CC1=C(/C=C/C(C)=C/C=C/C(C)=C/C(=O)O)C(C)(C)CCC1 [atRA, all-trans retinoic acid] | 2700 ± 2000 |  | decreased sGAG/DNA content | complete abolishment | No statistical differences |  | 2940 ± 1200
